Reference: PMC11602245 (Journal of Peptide Science, 2024)
Each block holds one molecule with its values, some of them ahead of it. Starred links: 1 amine or outer side, 2 acyl side, 3 side chain; linkers in the order of their positions; H or OH if unused. Positions of bridges follow the written chain, without caps; N, C: chain ends. Non-standard residues stand in square brackets, D forms with d. Residues, ends and D or L forms follow the SMILES beside them. *: point of attachment. X1 = NC(=O)C[C@H](N[*:1])c1cn([C@@H](Cc2ccccc2)C(=O)[*:2])nn1; DOTA = O=C(O)CN1CCN(CC(=O)O)CCN(CC(=O)*)CCN(CC(=O)O)CC1; NMeF = CN[C@@H](Cc1ccccc1)C(=O)O

Key:
[1] = cited from earlier work
human plasma = conditions: 37°C, up to 24 h
[2] = Metabolic stability in human plasma; assay type: in vitro ADME
Protocol: The human plasma used in the in vitro stability assays was purchased from Sigma‐Aldrich (H4522‐20ML).
The stability assays were conducted by incubating the ^111In‐labeled peptide conjugates in human plasma at 37°C for 24 h (n = 2). The detailed description of the procedure is described elsewhere.[13]
In order to assess the proteolytic stability of the new radiolabeled peptide conjugates, in vitro stability studies were conducted in blood plasma. [^111In]In‐XG1 and [^111In]In‐XG1‐A/B/C were incubated in human plasma at 37°C, and samples were taken after 24 h for their analysis by γ‐HPLC (Figure 3). […] This hypothesis is also supported by previously reported data that identified Thr^10‐Phe^11 as one of the main cleavage sites of the native SST‐14.[15] […] To better understand the degradation of [^111In]In‐XG1‐C over time, the stability was also determined after 4 h incubation in plasma (Figure 3D), after which only 27% of the original radiopeptide remained intact. […] We hypothesize that the incorporation of the methylated amino acid (N‐Me‐Phe^11) leads to a conformation of the peptide that facilitates the accessibility of amide bonds to proteases. Similar observations have been reported for other triazolo‐peptidomimetics.[11] […] For example, one of the main enzymes involved in the degradation of the native SST‐14 is neprilysin (NEP), a membrane‐bound metalloprotease abundantly expressed in various tissues.[21], [22] The role of this enzyme in the degradation of peptides cannot be contemplated with in vitro plasma stability assays but would have to be assessed in vivo (e.g., mice).[23]

[3] = molecular target: T1, SST2R‐overexpressing AR42J cells (Rattus norvegicus, UniProt P30680); experiment: Cell binding and internalization studies; assay type: cell-based; conditions: after 2 h, corresponds to the determined unspecific binding (blocking experiments)
T1 construct: incubating the ^111In‐labeled peptide conjugates with SST2R‐overexpressing AR42J cells in six well plates; host or cells: AR42J cells
Protocol: The AR42J cell line was purchased from the American Type Culture Collection (ATCC).
The cell binding and internalization assays were performed by incubating the ^111In‐labeled peptide conjugates with SST2R‐overexpressing AR42J cells in six well plates as previously described (n = 2–3 in triplicates).[13]
The binding of radiolabeled somatostatin derivatives to multiple SSTRs is of high interest because it allows to address a wide range of cancers with distinctive SSTR‐subtype expression patterns.[24] Yet, SST2R is of major medical importance because it is over‐expressed or co‐expressed by most cancer types (e.g., NETs).[25] Thus, we first focused on SST2R by conducting cell binding and internalization experiments with the SST2R‐expressing cell line AR42J. In order to determine the specificity of the binding and internalization of the radiolabeled peptides, the octapeptide TATE (DPhe^1‐cycle(Cys^2‐Phe^3‐DTrp^4‐Lys^5‐Thr^6‐Cys^7)Thr^8) was used in excess for blocking experiments. […] These values are in accordance with previously reported data.[13] […] From the total applied activity, <1% was found at the cell membrane and internalized, which corresponds to the determined unspecific binding (blocking experiments). See Figure S9 for the results of the binding and internalization studies. […]

T1 sequence (P30680 whole entry): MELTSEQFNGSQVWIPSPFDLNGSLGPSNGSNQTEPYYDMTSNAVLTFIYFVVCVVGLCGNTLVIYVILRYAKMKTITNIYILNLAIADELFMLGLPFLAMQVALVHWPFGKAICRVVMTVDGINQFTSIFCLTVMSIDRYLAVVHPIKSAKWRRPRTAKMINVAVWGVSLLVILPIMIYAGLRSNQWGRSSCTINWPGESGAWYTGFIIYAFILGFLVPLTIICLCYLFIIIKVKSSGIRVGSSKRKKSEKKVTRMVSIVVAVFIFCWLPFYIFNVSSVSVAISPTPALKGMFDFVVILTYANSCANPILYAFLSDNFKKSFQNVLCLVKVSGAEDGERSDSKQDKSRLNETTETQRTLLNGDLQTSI

Molecule: Ala^1 Gly^2 Cys^3 Lys^4 Asn^5 Phe^6 Phe^7 DTrp^8 Lys^9 Thr^10 Phe^11 Thr^12 Ser^13 Cys^14
cleaved bond [1]: Thr10-Phe11, major

Molecule: [DOTA,Asn^5‐Ψ[Tz]‐Phe^6,DTrp^8,β‐Phe^11]SST‐14
not cleaved (human plasma): more than 97% of intact peptide after 24 h

Molecule: [DOTA,Asn^5‐Ψ[Tz]‐Phe^6,DTrp^8,Thr^10‐Ψ[NH]‐Phe^11]SST‐14
not cleaved (human plasma): more than 97% of intact peptide after 24 h

Molecule: C[C@H](NC(=O)CN1CCN(CC(=O)O)CCN(CC(=O)O)CCN(CC(=O)O)CC1)C(=O)NCC(=O)N[C@H]1CSSC[C@@H](C(=O)O)NC(=O)[C@H](CO)NC(=O)[C@H]([C@@H](C)O)NC(=O)[C@H](Cc2ccccc2)NC[C@H]([C@@H](C)O)NC(=O)[C@H](CCCCN)NC(=O)[C@@H](Cc2c[nH]c3ccccc23)NC(=O)[C@H](Cc2ccccc2)NC(=O)[C@H](Cc2ccccc2)n2cc(nn2)[C@H](CC(N)=O)NC(=O)[C@H](CCCCN)NC1=O [[^111In]In‐XG1‐B, [DOTA,Asn^5‐Ψ[Tz]‐Phe^6,DTrp^8,Thr^10‐Ψ[NH]‐Phe^11]SST‐14, metal not drawn]
remaining at 24 h ([2]; human, plasma): > 97%

Molecule: C[C@H](NC(=O)CN1CCN(CC(=O)O)CCN(CC(=O)O)CCN(CC(=O)O)CC1)C(=O)NCC(=O)N[C@H]1CSSC[C@@H](C(=O)O)NC(=O)[C@H](CO)NC(=O)[C@H]([C@@H](C)O)NC(=O)[C@H](Cc2ccccc2)N(C)C(=O)[C@H]([C@@H](C)O)NC(=O)[C@H](CCCCN)NC(=O)[C@@H](Cc2c[nH]c3ccccc23)NC(=O)[C@H](Cc2ccccc2)NC(=O)[C@H](Cc2ccccc2)n2cc(nn2)[C@H](CC(N)=O)NC(=O)[C@H](CCCCN)NC1=O [[^111In]In‐XG1‐C, [DOTA,Asn^5‐Ψ[Tz]‐Phe^6,DTrp^8,N‐Me‐Phe^11]SST‐14, metal not drawn] ({DOTA}-AGCK[X1]F[dW]KT[NMeF]TSC-OH; disulfide 3-13)
remaining at 4 h ([2]; human, plasma): 27%

Molecule: C[C@H](NC(=O)CN1CCN(CC(=O)O)CCN(CC(=O)O)CCN(CC(=O)O)CC1)C(=O)NCC(=O)N[C@H]1CSSC[C@@H](C(=O)O)NC(=O)[C@H](CO)NC(=O)[C@H]([C@@H](C)O)NC(=O)[C@H](Cc2ccccc2)NC(=O)[C@H]([C@@H](C)O)NC(=O)[C@H](CCCCN)NC(=O)[C@@H](Cc2c[nH]c3ccccc23)NC(=O)[C@H](Cc2ccccc2)NC(=O)[C@H](Cc2ccccc2)n2cc(nn2)[C@H](CC(N)=O)NC(=O)[C@H](CCCCN)NC1=O [[^111In]In‐XG1, [DOTA,Asn^5‐Ψ[Tz]‐Phe^6,DTrp^8]SST‐14, metal not drawn] ({DOTA}-AGCK[X1]F[dW]KTFTSC-OH; disulfide 3-13)
major radiometabolite at rt = 6.4 min [2]: 35.3% | remaining at 24 h ([2]; human, plasma): 56%

total applied activity found at the cell membrane and internalized [3]: < 1%
Molecule: [DOTA,Asn^5‐Ψ[Tz]‐Phe^6,DTrp^8,β‐Phe^11]SST‐14 [[^111In]In‐XG1‐A]
